# Values of other authors as cited in patent publication US7205335B2, “Preparation of cis-fused 3,3a,8,12b-tetrahydro-2H-dibenzo[3,4:6,7]cyclohepta[1,2-b]furan derivatives” (priority 2001, dated 2007).
# Conditions: dose of 300 mg/kg
structure (smiles),measurement,value
"CNCC1CC2c3ccccc3Cc3ccccc3C2O1.O=C(O)C(=O)O (racemic) [(±)-3,3a,8,12b-tetrahydro-N-methyl-2H-dibenzo[3,4:6,7]-cyclohepta-[1,2-b]furan-2-methanamine oxalic acid]",activity as an antidepressant,inactive
